In EP4725957A1, “GROUP OF CYCLIC ALKALINE LIPOPEPTIDE COMPOUNDS, AND PREPARATION METHOD THEREFOR AND USE THEREOF” (Institute of Medicinal Biotechnology, Chinese Academy of …, priority 2023, dated 2024) one finds IC50 and MIC data, which are given here for four compounds.

What all share (type): cell-based
Data set [1] in a line: Nephrotoxicity assay: in vitro cytotoxicity of HK-2 cells by CCK-8 assay. The settings on record: human, HK-2 cells (human renal), 72 h incubation with drug-containing medium. The procedure:
In vitro cytotoxicity detection of HK-2 cells was performed by the CCK-8 assay.
The culture medium for human renal HK-2 cells was a complete RPMI-1640 medium (Invitrogen) supplemented with 10% fetal bovine serum (FBS, Gibco). The cryopreservation solution was composed of 90% FBS and 10% dimethyl sulfoxide (DMSO), and the cells were preserved long-term in liquid nitrogen. Cells were cultured in a sterile incubator with a humidified atmosphere containing 5% CO2 at 37°C. When the cell density reached 70%-80%, cell digestion and subculture were conducted. The cyclic lipopeptide compounds prepared in Examples 1-120 were weighed and dissolved in sterile water to prepare a mother solution with a concentration of 1 mg/mL. Drug-containing culture media were then formulated, with the final concentrations set as 500, 250, 200, 100, 50, 25, and 12.5 µg/mL, respectively. Cells were adjusted to a density of 5 × 10^4 cells/mL and seeded into 96-well plates, with 100 µL of cell suspension added to each well. After stable incubation for 24 h, the original medium was replaced with the prepared drug-containing medium, and the plates were incubated in the incubator for an additional 72 h. The medium was gently aspirated, and 100 µL of blank medium containing 10% CCK-8 was added to each well. After incubation in the incubator for 3 h, the optical density (OD) values at 450 nm were measured using a BIOTEK microplate reader. The experiment was repeated three times. For each replicate, polymyxin B was set as the positive drug, and a drug-free blank group was established as the control. The cell viability (%) was calculated by the formula: Cell viability (%) = [(OD of drug-treated group - OD of zero-setting) / (OD of drug-free group - OD of zero-setting)] × 100%. The half-maximal inhibitory concentration (IC50) values were calculated through logarithmic regression analysis.
The cells used for the nephrotoxicity assay were obtained from the ATCC ( American Type Culture Collection). The Cell Counting Kit-8 (CCK-8) used in the assay was supplied by Beyotime Biotechnology Co., Ltd.

The test system of data set [2] is Pseudomonas aeruginosa ATCC 27853. The conditions noted are these: ATCC 27853. As for the experimental part:
(§1) The minimal inhibitory concentration (MIC) was determined by the broth microdilution method according to the recommended procedures of the Clinical and Laboratory Standards Institute (CLSI).
(§2) An appropriate amount of the cyclic lipopeptide compounds prepared in Examples 1-120 and the reference standards were weighed and dissolved in sterile pure water. An appropriate volume of the mother solution was subjected to ten-fold dilution with sterile Mueller-Hinton (MH) broth to a concentration of 0.256 mg/mL. Half of the drug solution was aliquoted into 96-well reagent reservoirs, while the other half was subjected to two-fold serial dilution with sterile MH broth before being transferred into deep-well reagent reservoirs. The above steps were repeated, so that the drug concentrations in the reagent reservoirs were adjusted to 128, 64, 32, 16, 8, 4, 2, 1, 0.5, 0.25, 0.125 and 0.06 mg/L in sequence, and all solutions were prepared and used immediately. Several colonies were picked from agar plates cultured for 18-24 h and directly suspended in sterile normal saline, and the concentration of the bacterial suspension was adjusted to 0.5 McFarland units. The calibrated bacterial suspension was diluted with MH broth to a concentration of (4-8) × 10^5 colony-forming units per milliliter (CFU/mL) and prepared and used immediately. A volume of 100 µL of the aforementioned compounds of the present disclosure (e.g., the compounds prepared in the examples) and reference solutions at different concentrations was separately pipetted into wells 1 to 12 of sterile 96-well polystyrene plates, and an additional 100 µL of the aforementioned inoculum was added to each well. The final concentrations of the samples in the wells were adjusted to 64, 32, 16, 8, 4, 2, 1, 0.5, 0.25, 0.125, 0.06 and 0.03 mg/L, respectively, and the final concentration of the inoculum in each well was (2-4) × 10^5 CFU/mL. Additional growth control wells were set up, each containing 100 µL of the inoculum and 100 µL of sterile MH broth. The test substances and inocula in all wells were mixed thoroughly and then sealed. The inoculated 96-well plates were incubated in an incubator at 35-37°C for 16-20 h.
(§3) The strains used for the antibacterial activity assay were obtained from the American Type Culture Collection (ATCC) and clinical isolates.
(§4) The strains employed for the antibacterial activity assay included Escherichia coli ATCC BAA-2523, ATCC BAA-2340 (KPC), Klebsiella pneumoniae KPN+19-15, ATCC BAA-1705 (KPC), Pseudomonas aeruginosa PAE19-3, ATCC 27853, Acinetobacter baumannii ABA19-1, and NCTC 13304 (OXA-27).

Data set [3] has as its system Klebsiella pneumoniae KPN+19-15. The conditions noted are these: KPN+19-15. The procedure:
as §1, §2, §3, §4

The subject of data set [4] is Pseudomonas aeruginosa PAE19-3. The settings on record: PAE19-3. As for the experimental part: as §1, §2, §3, §4
Data set [5] has as its system Acinetobacter baumannii ABA19-1. The conditions noted are these: ABA19-1. The procedure: as §1, §2, §3, §4
Data set [6] has as its system Acinetobacter baumannii NCTC 13304 (OXA-27). The conditions noted are these: NCTC 13304. As for the experimental part:
as §1, §2, §3, §4

Data set [7] has as its system Escherichia coli ATCC BAA-2523. The conditions noted are these: ATCC BAA-2523. As for the experimental part:
as §1, §2, §3, §4

Data set [8] has as its system Klebsiella pneumoniae ATCC BAA-1705 (KPC). The settings on record: ATCC BAA-1705. The procedure:
as §1, §2, §3, §4

The test system of data set [9] is Escherichia coli ATCC BAA-2340 (KPC). The settings on record: ATCC BAA-2340. The procedure: as §1, §2, §3, §4

The structures appear in SMILES notation. In brackets after ≈: the same amount, converted by molar mass. Bridge positions count the residues as written; N and C are the ends. Square brackets hold non-standard residues; d marks the D form. Peptide text beside a SMILES is read from it. * marks the point of attachment. Heptanoyl(6-Me) = CC(C)CCCCC(=O)*; Nonanoyl = CCCCCCCCC(=O)*; Heptanoyl = CCCCCCC(=O)*; Octanoyl = CCCCCCCC(=O)*; Dab = NCC[C@H](N)C(=O)O

In data set [1], `CC(C)CCCCC(=O)N[C@@H](CCN)C(=O)N[C@H](C(=O)N[C@@H](CCN)C(=O)N[C@H]1CCNC(=O)[C@H]([C@@H](C)O)NC(=O)[C@H](CCN)NC(=O)[C@H](CCN)NC(=O)[C@H]([C@@H](C)O)NC(=O)[C@@H](Cc2ccccc2)NC(=O)[C@H](CCN)NC1=O)[C@@H](C)O` [Compound 17, 6-methylheptanoyl-Dab-Thr-Dab-ring(4-10)[Dab-Dab-D-Phe-Thr-Dab-Dab-Thr]] ({Heptanoyl(6-Me)}-[Dab]T[Dab][Dab][Dab][dF]T[Dab][Dab]T; lactam 4-C) returned an IC50 at 72 h of more than 500 µg/mL. For the same compound, the MIC in [2] is given as 0.5 µg/mL (≈ 0.425 µM); in [3] it was not above 0.03 µg/mL; in data set [4] it was 0.5 µg/mL (≈ 0.425 µM); in [5] it was 0.5 µg/mL (≈ 0.425 µM); in [6], 0.25 µg/mL (≈ 0.212 µM); in [7], 0.06 µg/mL (≈ 0.051 µM). The minimum inhibitory concentration (MIC) is 0.5 µg/mL (≈ 0.425 µM) in [8] and not above 0.03 µg/mL in data set [9].

In data set [1], `CCCCCCCC(=O)N[C@@H](CCN)C(=O)N[C@H](C(=O)N[C@@H](CCN)C(=O)N[C@H]1CCNC(=O)[C@H]([C@@H](C)O)NC(=O)[C@H](CCN)NC(=O)[C@H](CCN)NC(=O)[C@H]([C@@H](C)O)NC(=O)[C@@H](Cc2ccccc2)NC(=O)[C@H](CCN)NC1=O)[C@@H](C)O` [Compound 18, Octanoyl-Dab-Thr-Dab-ring(4-10)[Dab-Dab-D-Phe-Thr-Dab-Dab-Thr]] (Octanoyl-[Dab]T[Dab][Dab][Dab][dF]T[Dab][Dab]T; lactam 4-C) returned a 50% inhibitory concentration (IC50) at 72 h of more than 500 µg/mL. Besides, the minimum inhibitory concentration (MIC) in data set [2] was 0.5 µg/mL (≈ 0.425 µM); in data set [3], not above 0.03 µg/mL; in data set [4], 0.5 µg/mL (≈ 0.425 µM); in data set [5], 0.5 µg/mL (≈ 0.425 µM); in [6], 0.25 µg/mL (≈ 0.212 µM); in [7] it was not above 0.03 µg/mL. In addition, the results for the MIC in data set [8] and in data set [9] were 0.5 µg/mL (≈ 0.425 µM) and 0.06 µg/mL (≈ 0.051 µM), respectively.

In the case of `CCCCCCC(=O)N[C@@H](CCN)C(=O)N[C@H](C(=O)N[C@@H](CCN)C(=O)N[C@H]1CCNC(=O)[C@H]([C@@H](C)O)NC(=O)[C@H](CCN)NC(=O)[C@H](CCN)NC(=O)[C@H]([C@@H](C)O)NC(=O)[C@@H](Cc2ccccc2)NC(=O)[C@H](CCN)NC1=O)[C@@H](C)O` [Compound 19, Heptanoyl-Dab-Thr-Dab-ring(4-10)[Dab-Dab-D-Phe-Thr-Dab-Dab-Thr]] (Heptanoyl-[Dab]T[Dab][Dab][Dab][dF]T[Dab][Dab]T; lactam 4-C), the half-maximal inhibitory concentration (IC50) at 72 h in [1] is more than 500 µg/mL. Besides, the MIC was found to be 2 µg/mL (≈ 1.72 µM) in [2]; 0.03 µg/mL (≈ 0.0258 µM) in [3]; 2 µg/mL (≈ 1.72 µM) in data set [4]; 0.5 µg/mL (≈ 0.43 µM) in [5]; 0.25 µg/mL (≈ 0.215 µM) in [6]; 0.03 µg/mL (≈ 0.0258 µM) in [7]. For the same compound, the minimal inhibitory concentration (MIC) in data set [8] came out at 0.06 µg/mL (≈ 0.0516 µM); in data set [9], 0.03 µg/mL (≈ 0.0258 µM).

`CCCCCCCCC(=O)N[C@@H](CCN)C(=O)N[C@H](C(=O)N[C@@H](CCN)C(=O)N[C@H]1CCNC(=O)[C@H]([C@@H](C)O)NC(=O)[C@H](CCN)NC(=O)[C@H](CCN)NC(=O)[C@H]([C@@H](C)O)NC(=O)[C@@H](Cc2ccccc2)NC(=O)[C@H](CCN)NC1=O)[C@@H](C)O` [Compound 20, Nonanoyl-Dab-Thr-Dab-ring(4-10)[Dab-Dab-D-Phe-Thr-Dab-Dab-Thr]] (Nonanoyl-[Dab]T[Dab][Dab][Dab][dF]T[Dab][Dab]T; lactam 4-C): half-maximal inhibition in data set [1] (IC50 at 72 h) required 280 ± 10.3 µg/mL (≈ 235 µM). Besides, the MIC is reported as 2 µg/mL (≈ 1.68 µM) in data set [2]; 0.06 µg/mL (≈ 0.0504 µM) in data set [3]; 2 µg/mL (≈ 1.68 µM) in data set [4]; 0.5 µg/mL (≈ 0.42 µM) in data set [5]; 0.25 µg/mL (≈ 0.21 µM) in data set [6]; 0.06 µg/mL (≈ 0.0504 µM) in data set [7]. The minimum inhibitory concentration (MIC) in data set [8] and in [9] was 0.06 µg/mL (≈ 0.0504 µM) throughout.
